One block for each molecule: values may come before it.
What was measured:
[1] = tested on: hematopoietic stem and progenitor cells (HSPCs); assay: G-CSF induced HSPC mobilization, colony forming cell (CFC) assay of peripheral blood; format: in vivo, mice
Description: As mobilization efficiency of HSPC is a quantitative trait, quantitative trait locus (QTL) analysis was chosen as an approach to identify regulators of mobilization efficiency. Mice were mobilized with huG-CSF (Amgen) at 12.5 μg/ml in PBS/0.1% BSA and administered i.p. at 100 μg/kg/day once a day for 5 days and animals were analyzed on day 6. Murine recombinant EGF (0.2-3.6 μg/g) (Prepro tech, Rocky Hill, N.J.) was dissolved in PBS and administered i.p. on the last day of the G-CSF regimen. Erlotinib (2.5-100 mg/kg) was dissolved in methylcellulose and administered by gavage on day 3, 4, and 5 of the G-CSF regimen. A specific Cdc42 inhibitor (0.5 mg/ml) was dissolved in PBS containing 15% ethanol and administered by tail vain 18 h after the last G-CSF injection. Mobilization efficiency was determined with HSPC obtained approximately 14-16 hours after the last injection received by the group of mice.
Colony forming cell assays. 150 μl of peripheral blood (PB) was added to Hank's balanced salt solution (HBSS) and mixed with 4 ml of methylcellulose (Stem Cell Technologies) containing 50 ng/ml rm SCF, 10 ng/ml rm IL-3 and 10 ng/ml rh JL-6 and incubated at 37° C. Samples were plated in triplicate in 6 well plates (Falcon) and colonies of more than 50 cells were counted between 7 to 10 days. CFC counts were also determined in spleen (1×10^5) using the same protocol. The results are presented as mean±s.d. A paired student's t-test was used to determine the significance of the difference between means of two groups. Values were considered significant when p<0.05.

hematopoietic stem cells = assay: Competitive transplantation of mobilized peripheral blood to measure stem cell frequency (donor chimerism); format: in vivo, mice
Description: Transplantations/Competitive transplantations. BM cells were harvested and pooled from the tibia and the femur of 6-8 week old mice (donor) as well as B6.5JL(BoyJ) (competitor) mice. […] BM cells were subsequently transplanted into the retro-orbital sinus in a volume of 200 μA in IMDM/2% FCS.
Flow cytometry. Immunostaining and flow cytometry analyses were performed according to standard procedures and analyzed on a FacsCanto flow cytometer (BD Biosciences). Anti-Ly5.2 (clone 104, BD Biosciences, FITC conjugated) and anti-Ly5.1 (clone A20, BD Biosciences, PE conjugated) monoclonal antibodies were used to distinguish donor from recipient and competitor cells. For lineage analysis in hematopoietic tissues, anti-CD3ε (clone 145-2C11, PE-Cy7 conjugated), anti-B220 (clone RA3-6B2, APC conjugated), anti-CD11b (clone M1/70, APC-Cy7 conjugated) and anti-Gr-1 (clone RB6-8C5, APC-Cy7 conjugated, all from BD Biosciences) were used.

[2] = tested on: BM derived progenitor cells adhering to FBMD-1 stromal cells; assay: CAFC progenitor adhesion assay on FBMD-1 stroma; format: cell-based, mice; conditions: BM derived HSPCs from G-CSF treated animals
Description: CAFC progenitor adhesion assays. FBMD-1 cells were seeded in IMDM supplemented with 15% FCS and 5% horse serum (Gibco) at a density of 1000 cells per well in a 96 well plate. BM cells were plated onto the FBMD-1 stroma cell line at 3000, 1500, 750 and 375 cells per well at 15 wells per cell concentration in CAFC medium (IMDM, supplemented with 20% horse serum (Gibco) and 10^−5 M hydrocortisone (Sigma)). To determine progenitor cell adhesion, non-adherent cells were washed off the FBMD-1 stroma after 2 hours and fresh CAFC medium was added to each well. The frequency of total HSPCs and adherent HSPCs was determined by counting the frequency of cobblestone areas at day 7 on the FBMD-1 stroma cell line.

Cdc42 = assay: Rho-GTPase effector domain pull-down assay, Cdc42; format: in vivo, mice; conditions: for Cdc42 activity (GTP-bound form) in BM cells: in vivo in G-CSF treated animals, compared to G-CSF treatment alone (FIG. 7c, 7d)
Description: (§1) Rho-GTPase effector domain pull-down assays. Relative levels of GTP-bound RAC1, RAC2 and CDC42 were determined by an effector pull-down assay. Briefly, low density bone marrow cells (1×107) were lysed in a Mg2+ lysis/wash buffer (Upstate cell signaling solutions) containing 10% glycerol, 25 mM sodium fluoride, 1 mM sodium orthovanadate and a protease inhibitor cocktail (Roche Diagnostics). Samples were incubated with PAK-1 binding domain/agarose beads and bound (activated) as well as unbound (non-activated) Rho GTPases were probed by immunoblotting with antibodies specific for RAC1 (Upstate), RAC2 (Novus Biologicals) and CDC42 (BD Biosciences). Activated protein was normalized to total protein and β-actin (Sigma) and the relative amount was quantified by densitometry.

Rac1 = assay: Rho-GTPase effector domain pull-down assay, Rac1; design: species or system mice; conditions: in vivo in G-CSF treated animals (data not shown)
Description: as §1

Rac2 = assay: Rho-GTPase effector domain pull-down assay, Rac2; design: species or system mice; conditions: in vivo in G-CSF treated animals (data not shown)
Description: as §1

[3] = molecular target: epidermal growth factor receptor (EGFR), mouse, wild type, on hematopoietic stem and progenitor cells (mouse) (UniProt Q01279); assay: cell-based or functional assay
EGFR = EGFR expression in BM HSPCs by real time Q-RT-PCR; format: in vivo, mice; conditions: upon G-CSF treatment (FIG. 3a)
Source text: Whole genome expression analysis. RNA from sorted Lin-C-Kit+ cells were obtained with the Qiagen RNA assay micro kit according to the protocol of the manufacturer. RNA was subsequently linear amplified by the Affymetrix core at CCHMC and reverse transcribed with a Nugene Kit according to the manufacturer protocol. Labeled cDNA was then hybridized to and MOE430 array (Affymetrix) and raw expression data collected. Affymetrix .CEL files of the respective microarrays were imported into the statistical programming language R (www.r-project.org) using the affy Bioconductor (www.bioconductor.org) package. The data were then pre-processed (log2-transformed, background corrected, quantile normalized and summarized) using the rma function of the affy package. Affymetrix probes were filtered and re-grouped during summarization according to RefSeq annotation using custom chip description files (.CDF) for the MOE430 array provided by the Molecular and Behavioral Neuroscience Institute of the University of Michigan (Microarray Lab), http://brainarray.mbni.med.umich.edu/Brainarray/Database/CustomCDF/genomic_curated_CDF.asp). The expression level of the EGFR was subsequently confirmed by a Taqman real time PCR assay kit from Applied Biosystems (Assay ID: Mm01187863_g1)

mobilization efficiency of progenitor cells in G-CSF stimulated animals (CFC in peripheral blood) (fold reduction) [3]: 4
stem cell mobilization to PB (donor chimerism 3 months after competitive transplant) [3]: < 5 fold less
Molecule: Murine recombinant EGF (epidermal growth factor) (from UniProt P01132 977-1029) (ligand)

level of the GTP bound form of Rac1 (Rac1): did not detect a significant change
level of the GTP bound form of Rac2 (Rac2): did not detect a significant change
Molecule: C#Cc1cccc(Nc2ncnc3cc(OCCOC)c(OCCOC)cc23)c1 [Erlotinib, reference compound]
mobilization efficiency of progenitor cells ([1]; Erlotinib 2.5-10 mg/kg over last 3 days of G-CSF regimen vs G-CSF (FIG. 5e)): significantly increased
mobilization efficiency of stem cells (hematopoietic stem cells; Erlotinib 2.5-10 mg/kg over last 3 days of G-CSF regimen vs G-CSF, competitive transplantation read-out): significantly increased
adhesion of progenitor cells to stroma ([2]; Erlotinib 10 mM (FIG. 7b)): significantly reduced adhesion
Cdc42 activity (GTP-bound form) in BM cells (Cdc42): significant decrease

The remaining lines, values behind:

Molecule: EGF: Murine recombinant EGF (epidermal growth factor), activating ligand of EGFR
reduction of mobilization efficiency of progenitor cells ([1]; G-CSF stimulated animals, single dose EGF 0.8 μg/g on last day of G-CSF regimen (FIG. 3b)): approx. 4 fold
mobilization efficiency of progenitor cells ([1]; G-CSF stimulated animals, single dose EGF 0.2-1.0 on last injection day of G-CSF regimen (FIG. 3b)): dose-dependent inhibition
sensitivity to inhibition of mobilization efficiency by EGF ([1]; congenic line 1804 compared to B6 mice, G-CSF and EGF treatment (FIG. 3g)): significantly less sensitive
spontaneous mobilization ([1]; non-G-CSF treated animals, EGF dose range tested (data not shown)): did not restrict
mobilization efficiency ([1]; wa2+/- mice, G-CSF plus single injection of EGF on day 5 vs G-CSF alone (FIG. 3d)): unaffected
mobilization efficiency ([1]; wild type mice, G-CSF plus single injection of EGF on day 5 vs G-CSF alone (FIG. 3c)): significantly reduced
reduction of contribution to chimerism 3 months post transplant (stem cells mobilized to PB) (hematopoietic stem cells; G-CSF plus EGF (0.8 μg/g) vs G-CSF alone, equal volumes of blood (FIG. 3f)): approx. 5 fold
adhesion of progenitor cells to stroma ([2]; EGF 200 ng/ml (FIG. 7a)): significantly enhanced adhesion
Cdc42 activity (GTP-bound form) in BM cells (Cdc42): significant increase
level of the GTP bound form of Rac1 (Rac1): did not detect a significant change
level of the GTP bound form of Rac2 (Rac2): did not detect a significant change

B1: G-CSF: huG-CSF (Amgen), granulocyte colony-stimulating factor (protein, UniProt P09919 31-207, looked up)
Granulocyte …: TPLGPASSLPQSFLLKCLEQVRKIQGDGAALQEKLVSECATYKLCHPEELVLLGHSLGIPWAPLSSCPSQALQLAGCLSQLHSGLFLYQGLLQALEGISPELGPTLDTLQLDVADFATTIWQQMEELGMAPALQPTQGAMPAFASAFQRRAGGVLVASHLQSFLEVSYRVLRHLAQP
Cdc42 activity in LD-BM cells (Cdc42; B6 animals, G-CSF treated relative to control non-treated animals (FIG. 7e)): significantly increased
Cdc42 activity in LD-BM cells (Cdc42; line 1804 animals upon G-CSF treatment (FIG. 7e)): not being altered
EGFR expression levels in BM HSPCs (EGFR): decreased
